From ChEMBL document CHEMBL2380303, “Synthesis, cytotoxicity and topoisomerase II inhibitory activity of lomefloxacin derivatives” (Bioorg Med Chem Lett, 2013)
Calls of active or inactive are those of the source. The calls are words filed in the database; no cut-off is given here.

Experiments:
[1] = biological target: DNA topoisomerase 2-alpha (Homo sapiens) (UniProt P11388); experiment: Inhibition of human topoisomerase 2-mediated relaxation of supercoiled plasmid DNA assessed as formation of linear DNA at 100 uM by agarose gel electrophoresis
[2] = biological target: T1, DNA topoisomerase 1 (Homo sapiens) (UniProt P11387); experiment: Inhibition of human topoisomerase 1-mediated relaxation of supercoiled plasmid DNA assessed as formation of linear DNA at 100 uM by agarose gel electrophoresis
T1 sequence (whole entry): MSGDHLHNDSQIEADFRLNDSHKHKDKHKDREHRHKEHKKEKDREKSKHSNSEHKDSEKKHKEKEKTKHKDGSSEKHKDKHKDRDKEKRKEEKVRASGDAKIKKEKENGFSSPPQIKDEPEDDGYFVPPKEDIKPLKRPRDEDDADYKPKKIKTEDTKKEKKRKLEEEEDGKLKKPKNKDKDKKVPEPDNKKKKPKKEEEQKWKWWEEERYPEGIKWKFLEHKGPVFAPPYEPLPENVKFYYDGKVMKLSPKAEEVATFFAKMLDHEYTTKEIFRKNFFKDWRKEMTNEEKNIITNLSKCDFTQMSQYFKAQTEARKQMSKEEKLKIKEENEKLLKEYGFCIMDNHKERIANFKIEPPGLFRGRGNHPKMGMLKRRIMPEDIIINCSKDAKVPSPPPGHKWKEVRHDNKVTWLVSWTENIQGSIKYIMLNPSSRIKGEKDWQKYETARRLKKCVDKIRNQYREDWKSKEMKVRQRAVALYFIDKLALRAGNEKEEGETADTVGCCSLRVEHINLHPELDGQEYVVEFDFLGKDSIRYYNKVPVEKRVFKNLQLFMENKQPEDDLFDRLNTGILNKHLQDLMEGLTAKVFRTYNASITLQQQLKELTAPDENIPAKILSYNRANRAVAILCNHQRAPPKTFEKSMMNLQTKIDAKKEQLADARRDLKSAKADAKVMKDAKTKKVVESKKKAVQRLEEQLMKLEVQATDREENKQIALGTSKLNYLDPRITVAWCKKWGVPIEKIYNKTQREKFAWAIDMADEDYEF

KB = experiment: Cytotoxicity against human KB cells by MTT assay; format: functional, cell-based
Bel-7402 = experiment: Cytotoxicity against human Bel7402 cells by MTT assay; format: functional, cell-based
HCT-116 = experiment: Cytotoxicity against human HCT116 cells by MTT assay; format: functional, cell-based
MDA-MB-231 = experiment: Cytotoxicity against human MDA-MB-231 cells by MTT assay; format: functional, cell-based
A549 = experiment: Cytotoxicity against human A549 cells by MTT assay; format: functional, cell-based

DNA topoisomerase 2-alpha (Homo sapiens), sequence (P11388 whole entry): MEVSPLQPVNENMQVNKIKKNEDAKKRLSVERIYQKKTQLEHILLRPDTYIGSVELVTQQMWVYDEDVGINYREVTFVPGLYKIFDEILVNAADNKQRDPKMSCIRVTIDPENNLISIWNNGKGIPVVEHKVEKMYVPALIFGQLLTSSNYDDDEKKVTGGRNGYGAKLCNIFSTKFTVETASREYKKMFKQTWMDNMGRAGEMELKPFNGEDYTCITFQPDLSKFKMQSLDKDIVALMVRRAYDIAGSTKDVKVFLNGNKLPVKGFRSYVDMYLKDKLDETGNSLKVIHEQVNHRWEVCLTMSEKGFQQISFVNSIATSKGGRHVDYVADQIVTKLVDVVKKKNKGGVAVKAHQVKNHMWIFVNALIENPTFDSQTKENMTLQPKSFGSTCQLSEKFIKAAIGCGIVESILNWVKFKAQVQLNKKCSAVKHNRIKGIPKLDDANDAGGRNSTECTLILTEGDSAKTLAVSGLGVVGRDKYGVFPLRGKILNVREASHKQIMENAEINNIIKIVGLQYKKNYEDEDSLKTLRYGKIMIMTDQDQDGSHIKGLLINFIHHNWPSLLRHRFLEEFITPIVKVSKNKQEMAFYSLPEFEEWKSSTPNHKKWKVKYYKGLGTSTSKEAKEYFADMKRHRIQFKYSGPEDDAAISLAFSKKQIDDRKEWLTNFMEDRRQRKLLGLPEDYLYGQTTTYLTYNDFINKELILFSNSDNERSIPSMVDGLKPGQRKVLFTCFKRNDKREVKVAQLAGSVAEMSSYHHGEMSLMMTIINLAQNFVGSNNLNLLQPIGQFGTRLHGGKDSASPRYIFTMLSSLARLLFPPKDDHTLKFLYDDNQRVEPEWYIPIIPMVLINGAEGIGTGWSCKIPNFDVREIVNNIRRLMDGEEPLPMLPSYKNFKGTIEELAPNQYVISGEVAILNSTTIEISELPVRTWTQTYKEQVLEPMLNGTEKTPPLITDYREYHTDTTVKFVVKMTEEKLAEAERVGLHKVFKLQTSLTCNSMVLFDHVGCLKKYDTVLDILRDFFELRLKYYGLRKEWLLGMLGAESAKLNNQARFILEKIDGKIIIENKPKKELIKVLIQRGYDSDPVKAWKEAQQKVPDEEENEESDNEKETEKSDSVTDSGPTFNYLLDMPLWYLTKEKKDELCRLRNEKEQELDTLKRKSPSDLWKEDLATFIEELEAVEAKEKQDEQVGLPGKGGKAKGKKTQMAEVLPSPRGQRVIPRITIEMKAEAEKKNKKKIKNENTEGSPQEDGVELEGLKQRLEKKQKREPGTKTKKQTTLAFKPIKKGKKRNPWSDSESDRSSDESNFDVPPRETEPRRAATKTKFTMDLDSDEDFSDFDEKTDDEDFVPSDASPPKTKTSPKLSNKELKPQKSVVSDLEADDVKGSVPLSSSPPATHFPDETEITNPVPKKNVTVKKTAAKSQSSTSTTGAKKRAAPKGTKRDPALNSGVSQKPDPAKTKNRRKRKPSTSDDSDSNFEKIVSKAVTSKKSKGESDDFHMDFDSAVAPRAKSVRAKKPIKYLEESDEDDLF

Compound | inhibition [1] | inhibition [2] | IC50 (KB) | IC50 (Bel-7402) | IC50 (HCT-116) | IC50 (MDA-MB-231) | IC50 (A549)
CCn1cc(C(=O)Nc2ccc(C)c([N+](=O)[O-])c2)c(=O)c2cc(F)c(N3CCNC(C)C3)c(F)c21 (stereo not drawn) | Active | inactive | 3.9 µM | 29.1 µM | 11.8 µM | 4.2 µM | 3.7 µM
CCn1cc(C(=O)Nc2ccc(C(C)=O)cc2)c(=O)c2cc(F)c(N3CCNC(C)C3)c(F)c21 (stereo not drawn) | Active | inactive | 42.6 µM | > 50 µM | 4.6 µM | 5.6 µM | 4 µM
CC[C@@]1(O)C(=O)OCc2c1cc1n(c2=O)Cc2cc3cc(O)ccc3nc2-1 [HYDROXYCAMPTOTHECIN] | – | – | – | – | 0.3 µM | 0.06 µM | 0.07 µM
CCn1cc(C(=O)Nc2ccc(OC(F)(F)F)cc2)c(=O)c2cc(F)c(N3CCNC(C)C3)c(F)c21 (stereo not drawn) | Active | inactive | 1.4 µM | 2 µM | 2.35 µM | 0.98 µM | 1.32 µM
CCn1cc(C(=O)Nc2ccccc2N)c(=O)c2cc(F)c(N3CCNC(C)C3)c(F)c21 (stereo not drawn) | – | inactive | 2.8 µM | 4.8 µM | 2.7 µM | 9.5 µM | 5.9 µM
CCn1cc(C(=O)Nc2nccs2)c(=O)c2cc(F)c(N3CCNC(C)C3)c(F)c21 (stereo not drawn) | – | inactive | 43.5 µM | > 50 µM | 8.66 µM | > 50 µM | 20.2 µM
CCn1cc(C(=O)Nc2ccc(OC)cc2)c(=O)c2cc(F)c(N3CCNC(C)C3)c(F)c21 (stereo not drawn) | – | inactive | 2.6 µM | 5.4 µM | 3.8 µM | 7.3 µM | 9.7 µM
COc1cc([C@@H]2c3cc4c(cc3[C@@H](O[C@@H]3O[C@@H]5CO[C@@H](C)O[C@H]5[C@H](O)[C@H]3O)[C@H]3COC(=O)[C@H]23)OCO4)cc(OC)c1O | Active | – | – | – | – | – | –
CCn1cc(C(=O)Nc2ccccc2O)c(=O)c2cc(F)c(N3CCNC(C)C3)c(F)c21 (stereo not drawn) | – | inactive | 5.05 µM | > 50 µM | 5.37 µM | 7.43 µM | 24.8 µM
CCn1cc(C(=O)Nc2ccc(Cl)cn2)c(=O)c2cc(F)c(N3CCNC(C)C3)c(F)c21 (stereo not drawn) | Active | inactive | 1.6 µM | 4.9 µM | 3.3 µM | 4.8 µM | 3.3 µM
CCn1cc(C(=O)NCc2ccc(OC)cc2)c(=O)c2cc(F)c(N3CCNC(C)C3)c(F)c21 (stereo not drawn) | – | inactive | 1.63 µM | 10.3 µM | 1.4 µM | 25.3 µM | 7 µM
CCn1cc(C(=O)Nc2cccc([N+](=O)[O-])c2)c(=O)c2cc(F)c(N3CCNC(C)C3)c(F)c21 (stereo not drawn) | Active | inactive | 1.7 µM | 1 µM | 2.71 µM | 3.25 µM | 3.24 µM
CCn1cc(C(=O)Nc2cc([N+](=O)[O-])ccc2F)c(=O)c2cc(F)c(N3CCNC(C)C3)c(F)c21 (stereo not drawn) | Active | inactive | 3.2 µM | 2.9 µM | 2.6 µM | 6.9 µM | 1.7 µM
CCn1cc(-c2nc3ccc([N+](=O)[O-])cc3o2)c(=O)c2cc(F)c(N3CCNC(C)C3)c(F)c21 (stereo not drawn) | – | inactive | 0.9 µM | 1.6 µM | 1.1 µM | 2 µM | 0.9 µM
CCn1cc(C(=O)Nc2ccccc2)c(=O)c2cc(F)c(N3CCNC(C)C3)c(F)c21 (stereo not drawn) | – | inactive | 4.4 µM | 6 µM | 12.7 µM | 7.4 µM | 39.3 µM
